Earlier results, collected in US20050159471A1, “Compositions of a benzenesulfonamide or methylsulfonylbenzene cyclooxygenase-2 selective inhibitor and a cholinergic agent for the treatment of reduced blood flow or trauma to the central nervous system” (Pharmacia Corporation, priority 2003, published 2005).

Conditions: administered to subjects following stroke

For citicoline, the behavioral parameters is given as “improvement in behavioral parameters” and the infarction volume is given as “decrease in infarction volume”.
